Data as given in publication PMC8691200 (Journal of Chemical Information and Modeling, 2021).
“Also recorded” adds a separate entry of the source.

Experiments:
[1] = tested on: SARS-CoV-2; conditions: Vero E6 cells; cited from earlier work
[2] = tested on: SARS-CoV-2 MEX-BC2/2020 strain; type: cell-based
[3] = tested on: SARS-CoV-2; conditions: Vero E6 cells, real-time polymerase chain reaction; cited from earlier work
[4] = tested on: Vero E6 cells

## CC(CN(C)C)CN1c2ccccc2CCc2ccccc21 (centres unmarked) [trimipramine]
[1]
  CPE (% efficacy): 48%

## N#C[C@@]1(c2ccc3c(N)ncnn23)O[C@H](CO)[C@@H](O)[C@H]1O [GS-441524]
[2]
  maximum % inhibition observed: 100%
  prevention of virus-induced CPE: prevented completely the virus-induced CPE; also recorded: completely prevented the virus-induced CPE

## COc1ccc2cc1Oc1ccc(cc1)C[C@H]1c3c(cc4c(c3Oc3cc5c(cc3OC)CCN(C)[C@@H]5C2)OCO4)CCN1C [Cepharanthine]
[1]
  CPE (% efficacy): 92%

## CCOC(=O)c1c(CSc2ccccc2)n(C)c2cc(Br)c(O)c(CN(C)C)c12 [Compound 1, Arbidol]
25 μM, 96 h incubation with infected cells
  compound precipitation or recrystallization in micrographs: no observed compound precipitation or recrystallization
Solubilized in DMSO or buffer (for salts)
  aqueous solubility: good aqueous solubility
[3]
  maximum inhibition of virus entry: 70%
[4]
  cytotoxicity in viability assays: dose-dependent trend of cytotoxicity
[4]; African green monkey
  safety ratio: 2.3

## C=C[C@@]1(C)CC(=O)[C@]2(O)[C@@]3(C)[C@@H](O)CCC(C)(C)[C@@H]3[C@H](OC(=O)CCN(C)C)[C@H](OC(C)=O)[C@@]2(C)O1.Cl [NKH477]
[1]
  CPE (% efficacy): 45%

## CC1=C[C@]23C(=O)[C@@H](C=C(CO)[C@@H](O)[C@]2(O)[C@H]1O)[C@H]1[C@@H](C[C@H]3C)C1(C)C [ingenol]
[1]
  CPE (% efficacy): 38.2%
